Experimental data as given in US8580847B2, “Antrocin containing pharmaceutical compositions for inhibiting cancer cells” (Chaoyang University of Technology, priority 2010, dated 2013).

Legend:
[1] = system: non-tumorgenic breast epithelial MCF-10A cells; experiment: SRB assay, non-tumorgenic MCF-10A cells; type: cell-based, human; settings: SRB assay (FIG. 2)
Protocol: (§1) MCF-7 and MDA-MB-231 breast tumor cell lines came from a pleural effusion of patients with invasive breast carcinoma. The MCF-10A cell line is a non-tumorigenic epithelial cell line. All three human cell lines were provided by the American Type Culture Collection (ATCC). In the present invention, MDA-MB-231 cells were grown in Dulbecco's Modified Eagle's Medium (DMEM) media with 10% FBS, 2 mM glutamine, 100 μg/ml streptomycin in a 37° C. humidified atmosphere with CO2. MCF-7 were cultured in DMEM media supplemented with 2 mM L-glutamine, 100 μg/ml streptomycin, 10% fetal bovine serum, 0.04 UI/ml insulin in a humidified atmosphere at 37° C. containing 5% CO2. MCF10A cells were maintained in DMEM containing 5% horse serum, 2 mM L-glutamine, 20 μg/ml gentamycin, 20 ng/ml epidermal growth factor, 100 ng/ml cholera toxin, 0.25 UI/ml insulin and 0.5 μg/ml hydrocortisone held at 37° C. with 5% CO2.
(§2) Antrocin was dissolved in DMSO at a concentration of 10 mM and was stored in a dark-colored bottle at −20° C. as a stock solution. The stock was diluted to the required concentration with serum-free medium immediately before use. […]
(§3) Briefly, three breast cancer cells (MDA-MB-231, MCF-7 & MCF-10A) were seeded into 96-well plates in growth medium at 3000 cells/well for 24 h. […] Optical densities were read on a microplate reader (Molecular Devices, Sunnyvale, Calif.) at 562 nm.

[2] = system: normal foreskins fibroblast HS68 cells; experiment: SRB assay, normal HS68 cells; type: cell-based, human; settings: SRB assay (FIG. 2)
Protocol: (§4) Briefly, three breast cancer cells (MDA-MB-231, MCF-7 & MCF-10A) were seeded into 96-well plates in growth medium at 3000 cells/well for 24 h. Then, the cells were treated with antrocin at various concentrations (0, 0.5, 1, 3, 5 and 10 μM) for various periods of time. After the exposure period, the cells were fixed with TCA for 1 hour and stained with 100 μL of 0.4% (w/v) SRB for 10 minutes at room temperature. The bound dye was solubilized in 20 mM Tris base (100 μL/well) for 5 minutes on a shaker. Optical densities were read on a microplate reader (Molecular Devices, Sunnyvale, Calif.) at 562 nm.
(§5) The anti-proliferative effects of antrocin were assessed on human cancer cell lines, using the SRB assay, with normal foreskins fibroblast HS68 cells and non-tumorgenic breast epithelial MCF-10A cells as controls.

[3] = system: MCF-7 human breast carcinoma cells; experiment: SRB cytotoxicity assay, MCF-7; type: cell-based
Protocol: as §1, §2, §3

MDA-MB-231 cells [4] = experiment: Cell cycle analysis by PI flow cytometry; type: cell-based, human; settings: 48 hr, MDA-MB-231 (FIG. 5)
Protocol: A total of 2×10^5 MDA-MB-231 cells/dish were seeded onto each 60 mm dish and incubated for 24 h. Various concentration of antrocin were added to the culture media, and the cells were incubated for an additional 48 hr. Cells were harvested and fixed in cold 75% ethanol at 4° C. for 16 h and incubated with 20 μg/ml RNase A at 37° C. for 30 min and then with 40 μg/ml propidium iodide (PI) at 4° C. for 30 min. Samples were immediately analyzed with a FACSCalibur flow cytometer (Becton, Dickinson and Co., San Jose, Calif). Approximately 10,000 counts were made for each sample. The percentage distributions of apoptotic cells were calculated by CellQuest™ software (Becton, Dickinson and Co., San Jose, Calif.).

[5] = system: human cancer cell lines (HT-29, HCT116, Huh7, A549, MCF7, MDA-MB-231); experiment: SRB anti-proliferative assay on human cancer cell lines; type: cell-based
Protocol: Antrocin was dissolved in DMSO at a concentration of 10 mM and was stored in a dark-colored bottle at −20° C. as a stock solution. The stock was diluted to the required concentration with serum-free medium immediately before use. Before treatment with antrocin, the medium was removed when cells were about 70% confluent, the cells were starved overnight in serum-free medium and then exposed to antrocin at different concentrations (0-10 μM) and for different periods of time (0-48 h).
as §4, §5

[6] = system: MDA-MB-231 human breast cancer cells; experiment: SRB cytotoxicity assay, MDA-MB-231; type: cell-based
Protocol: as §1, §2, §3

MDA-MB-231 cells [7] = experiment: Cell morphology studies by phase microscopy; type: cell-based, human; settings: 48 hr incubation, various concentration, phase-contrast microscope (FIG. 4)
Protocol: After treatment with different dose of antrocin for 48 hr, the MDA-MB-231 cells, cultured on glass coverslips, were washed three times with PBS, fixed with 3% paraformaldehyde for 10 min at room temperature, and then washed in PBS again, and the morphological changes were observed. Cell morphology was then observed by phase microscopy.

C=C1CCC2C(C)(C)CCCC23C(=O)OCC13 (centres unmarked) [antrocin]
antiproliferative effect / growth inhibition on MCF-10A cells [1]: no antiproliferative effect | antiproliferative effect / growth inhibition on MCF-10A cells ([1]; listed as Antrocin): no significant inhibition | antiproliferative effect on HS68 cells [2]: no antiproliferative effect | cell growth inhibition, MDA-MB-231 compared with MCF-7 [3]: more effective in MDA-MB-231 cells in comparison with MCF-7 | progression to apoptosis (apoptotic cells) (MDA-MB-231 cells [4]; 10 μM antrocin): 58.3% | cell cycle distribution (MDA-MB-231 cells [4]; different dose): accumulated progressively in subG1 phase | inhibition activity to cancer cell lines ([5]; HT-29, HCT116, Huh7, A549, MCF7, MDA-MB-231): high inhibition activity | growth of cancer cells ([5]; SRB assay, all cancer cells tested (FIG. 1)): inhibited in a concentration-dependent manner | cell growth inhibition compared with doxorubicin or cisplatin ([6]; MDA-MB-231, 48 hr treatment, same dosage (FIG. 3)): more potent than doxorubicin or cisplatin | MDA-MB-231 cell growth ([6]; antrocin concentration of 0.5 μM): significantly inhibited | morphological alterations (MDA-MB-231 cells [7]): cell shrinkage, membrane blebbing, apoptotic body formation
